Among the data in US20220324865A1 (Bayer Aktiengesellschaft, priority 2018, published 2022) are IC50 values, retold here.

The target in this test is T1, human EP3 receptor (Homo sapiens, UniProt P43115).
T1 construct: expressed in transfected cells; host or cells: CHO K1 (Chinese Hamster Ovary), stably co-transfected with Galpha16 and mitochondrial clytin
T1 sequence (P43115 1-390): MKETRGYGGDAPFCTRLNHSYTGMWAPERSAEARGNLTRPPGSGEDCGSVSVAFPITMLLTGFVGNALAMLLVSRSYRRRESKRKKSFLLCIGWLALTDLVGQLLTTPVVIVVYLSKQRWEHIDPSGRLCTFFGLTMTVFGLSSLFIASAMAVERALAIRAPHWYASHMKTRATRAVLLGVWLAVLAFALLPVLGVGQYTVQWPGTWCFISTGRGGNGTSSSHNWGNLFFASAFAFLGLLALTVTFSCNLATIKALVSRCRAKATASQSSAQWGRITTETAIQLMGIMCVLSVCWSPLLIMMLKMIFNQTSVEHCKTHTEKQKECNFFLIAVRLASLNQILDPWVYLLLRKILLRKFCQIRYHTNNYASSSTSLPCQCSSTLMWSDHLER
The test can be described thus: Cellular in vitro assay for determining EP3 receptor activity (human EP3 cell line, sulprostone-stimulated calcium luminescence). The class given is cell-based. To be noted: CHO cells expressing human EP3 and mitochondrial Clytin; antagonist mode, sulprostone at EC50; read-out: EP3 CHO mtCLY ANTAG IC50. Put shortly:
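CHO K1 cells stably expressing human EP3 with Gα16 and mitochondrial Clytin, loaded overnight with coelenterazine. Compounds added 10 min before sulprostone at its EC50; antagonism read immediately as reduced calcium-driven luminescence, quadruplicate points.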
As to `N#Cc1c(C(=O)NC(CO)c2cc(Cl)cc(Cl)c2)nn2cc(-c3ccc4ccccc4c3)[nH]c(=O)c12` (centres unmarked) [Example 3-76, 3-Cyano-N-[1-(3,5-dichlorophenyl)-2-hydroxyethyl]-6-(2-naphthyl)-4-oxo-5H-pyrazolo[1,5-a]pyrazine-2-carboxamide], the IC50 is 4.35 nM.

On to `N#Cc1c(C(=O)NCCn2ccc(C3CC3)n2)nn2cc(-c3ccc4ccccc4c3)[nH]c(=O)c12` [Example 3-77, 3-Cyano-N-[2-(3-cyclopropyl-1H-pyrazol-1-yl)ethyl]-6-(naphthalen-2-yl)-4-oxo-4,5-dihydropyrazolo[1,5-a]pyrazine-2-carboxamide], for which the IC50 stood at 4.65 nM.

As to `Cc1cccc2ncc(-c3cn4nc(C(=O)NC(CN(C)C)c5ccccc5)c(C(C)C)c4c(=O)[nH]3)cc12` (centres unmarked) [Example 4-1, N-[2-(Dimethylamino)-1-phenylethyl]-3-isopropyl-6-(5-methyl-3-quinolyl)-4-oxo-5H-pyrazolo[1,5-a]pyrazine-2-carboxamide], the half-inhibitory concentration (IC50) came out at 1.75 nM.

With `Cc1cccc2ncc(-c3cn4nc(C(=O)NCc5cccc(CN(C)C)c5)c(C(C)C)c4c(=O)[nH]3)cc12` [Example 4-2, N-({3-[(Dimethylamino)methyl]phenyl}methyl)-6-(5-methylquinolin-3-yl)-4-oxo-3-(propan-2-yl)-4,5-dihydropyrazolo[1,5-a]pyrazine-2-carboxamide], the IC50 worked out at 2.8 nM.

As to `Cc1cccc2ncc(-c3cn4nc(C(=O)NC5(c6ccc(C#N)cc6)CC5)c(C(C)C)c4c(=O)[nH]3)cc12` [Example 4-3, N-[1-(4-Cyanophenyl)cyclopropyl]-6-(5-methylquinolin-3-yl)-4-oxo-3-(propan-2-yl)-4,5-dihydropyrazolo[1,5-a]pyrazine-2-carboxamide], the IC50 was found to be 1.65 nM.

Take `COc1ccccc1C(C)NC(=O)c1nn2cc(-c3cnc4cccc(C)c4c3)[nH]c(=O)c2c1C(C)C` (centres unmarked) [Example 4-4, 3-Isopropyl-N-[1-(2-methoxyphenyl)ethyl]-6-(5-methyl-3-quinolyl)-4-oxo-5H-pyrazolo[1,5-a]pyrazine-2-carboxamide]: the IC50 came to 2.45 nM.

Turning to `Cc1cccc2ncc(-c3cn4nc(C(=O)N[C@@H]5CCCc6ccccc65)c(C(C)C)c4c(=O)[nH]3)cc12` [Example 4-5, 6-(5-Methylquinolin-3-yl)-4-oxo-3-(propan-2-yl)-N-[(7R)-1,2,3,4-tetrahydronaphthalen-1-yl]-4,5-dihydropyrazolo[1,5-a]pyrazine-2-carboxamide], the IC50 came out at 7.7 nM.

Consider `COc1ccc(C(C)NC(=O)c2nn3cc(-c4cnc5cccc(C)c5c4)[nH]c(=O)c3c2C(C)C)cn1` (centres unmarked) [Example 4-6, 3-Isopropyl-N-[1-(6-methoxy-3-pyridyl)ethyl]-6-(5-methyl-3-quinolyl)-4-oxo-5H-pyrazolo[1,5-a]pyrazine-2-carboxamide], for which the IC50 stood at 1.16 nM.

Regarding `COc1ccc(C(C)NC(=O)c2nn3cc(-c4cnc5cccc(C)c5c4)[nH]c(=O)c3c2C(C)C)cc1` (centres unmarked) [Example 4-7, 3-Isopropyl-N-[1-(4-methoxyphenyl)ethyl]-6-(5-methyl-3-quinolyl)-4-oxo-5H-pyrazolo[1,5-a]pyrazine-2-carboxamide], the IC50 came out at 1.14 nM.

As for `Cc1cccc2ncc(-c3cn4nc(C(=O)NC(C)(C)c5cc(Cl)cc(Cl)c5)c(C(C)C)c4c(=O)[nH]3)cc12` [Example 4-8, N-[2-(3,5-Dichlorophenyl)propan-2-yl]-6-(5-methylquinolin-3-yl)-4-oxo-3-(propan-2-yl)-4,5-dihydropyrazolo[1,5-a]pyrazine-2-carboxamide], the IC50 was found to be 4.3 nM.

In the case of `CCc1ccc(C(C)NC(=O)c2nn3cc(-c4cnc5cccc(C)c5c4)[nH]c(=O)c3c2C(C)C)cc1` (centres unmarked) [Example 4-9, N-[1-(4-Ethylphenyl)ethyl]-3-isopropyl-6-(5-methyl-3-quinolyl)-4-oxo-5H-pyrazolo[1,5-a]pyrazine-2-carboxamide], the IC50 is 3.7 nM.
